Measurements from PMC6891555, “Thuwalallenes A–E and Thuwalenynes A–C: New C15 Acetogenins with Anti-Inflammatory Activity from a Saudi Arabian Red Sea Laurencia sp” (Marine Drugs, 2019).
Entries after “also recorded” stand apart in the source; their conditions may differ.

What was measured:
[1] = Cytotoxicity by MTT assay in RAW 264.7 macrophages; type: cell-based, mouse; details: mouse, 72 h of treatment
Procedure: (§1) The IC50 values for the inhibition of NO production were determined in LPS-treated RAW 264.7 cells in comparison to cells treated with the vehicle (Carbowax 400) only (Table 3, Figure S1). To verify that the anti-inflammatory activity observed was not due to cytotoxic effect, the potential cytotoxicity of 1–6, 8, 10 and 11 was evaluated using the MTT assay following 24, 48 and 72 h of treatment in RAW 264.7 macrophages (Table 3, Figure S2).
(§2) Mouse macrophage cell line RAW 264.7 was cultured in DMEM medium (cat. # 21885-025, Gibco, Thermo Fisher Scientific, Waltham, MA, USA) supplemented with 10% heat inactivated fetal bovine serum (cat. # 10270-106, Gibco, Thermo Fisher Scientific, Waltham, MA, USA) and 1% penicillin-streptomycin (cat. # 15070-063, Gibco, Thermo Fisher Scientific, Waltham, MA, USA). Cells were cultured in 37 °C and 5% CO2. Each compound was diluted in Carbowax^TM 400 + 10% ethanol (cat. # 1.00983, Merck, Darmstadt, Germany), used also as control solvent. Final concentration in culture was 0.1% v/v carbowax and 0.01% v/v ethanol. RAW 264.7 macrophages were activated using 100 ng/mL lipopolysaccharide (LPS) (L2630, Merck, Darmstadt, Germany). In IC50 determination experiments, macrophages were pre-treated for 1 h with the respective compound prior to LPS stimulation.
(§3) 3.5 × 10^3 RAW 264.7 mouse macrophages were seeded in 96-well plate and cultured over night. Cells were subsequently treated with the respective compound concentration and incubated for 24, 48 and 72 h. Number of cells was measured prior to treatment and used as normalisation control. Thiazolyl Blue Tetrazolium Bromide (MTT) (A2231.001, Applichem GmbH, Darmstadt, Germany) was added to the cells in a final concentration of 0.5 mg/mL and then cells were incubated at 37 °C and 5% CO2 for 4 h. The supernatant was discarded and cells were lysed with 2-propanol (33539, Honeywell, Charlotte, NC, USA) with 0.4% HCl (30721, Merck, Darmstadt, Germany). The absorbance of each sample was measured in an automated microplate reader (Infinite 200 PRO, Tecan, Männedorf, Switzerland) at 600 nm. The average OD of each treated sample was normalized to the OD of the control sample and statistical analysis was performed using Graphpad Prism 7.0 (GraphPad Software, San Diego, CA, USA).

[2] = system: RAW 264.7 macrophages; assay: Cytotoxicity by MTT assay in RAW 264.7 macrophages; type: cell-based, mouse; details: for concentration above which cytotoxicity was observed: 72 h following treatment
Procedure: as §1, §2, §3

[3] = system: NO production in LPS-treated RAW 264.7 cells; assay: Inhibition of NO production (Griess reaction) in LPS-treated RAW 264.7 macrophages; type: cell-based, mouse; details: for IC50: Mus musculus, RAW264.7, LPS (100 ng/mL, 48 h)-treated RAW 264.7 cells, 1 h pre-treatment, Griess reaction, vs vehicle Carbowax 400; for anti-inflammatory activity (inhibition of NO production), in words: TLR4 (LPS) stimulated macrophages
Procedure: as §1, §2
30 × 10^4 RAW 264.7 mouse macrophages were plated in 24-well plates over-night with 0.5 mL complete medium. Cells were pretreated for 1 h with the respected compound concentration and then stimulated with 100 ng/mL LPS (L2630, Merck, Darmstadt, Germany) for 48 h. The amount of nitrite, an oxidative product of NO, was measured in culture supernatant of each sample using the Griess reaction. 100 μL of supernatant was mixed with 100 μL of sulfanilamide solution (1% sulfanilamide in 5% H3PO4) and incubated for 5 min at room temperature. Then, 100 μL of NED solution (0.1% N-1-napthylethylenediamine dihydrochlorite in H2O) was added and the absorbance was measured in an automated microplate reader (Infinite 200 PRO, Tecan, Männedorf, Switzerland) at 540 nm. Nitrite concentration was calculated using a sodium nitrite standard curve. All incubations were performed in the dark.

[4] = Stability of isolated metabolites (observation); type: physicochemical; details: reason why bioactivity was not evaluated

| Structure (SMILES) | IC50 at 72 h [1] [µM] | concentration above which cytotoxicity was observed [2] | IC50 [3] [µM] | cytotoxicity, in words [2] | anti-inflammatory activity (inhibition of NO production), in words [3] | stability of the metabolite, in words [4] | concentration above which significant cytotoxicity was observed [2] | IC50 [1] [µM] |
| --- | --- | --- | --- | --- | --- | --- | --- | --- |
| CC[C@@H]1O[C@@H]2C[C@@H]3O[C@@H]3C[C@H](C=C=CBr)O[C@@H]2C[C@H]1Br (relative stereo) [Compound 2, Thuwalallene B] | > 31.2 | > 31.25 µM | 13.2 ± 0.57 |  |  |  |  |  |
| CC[C@@H]1O[C@@H]2C/C=C\C[C@H](C=C=CBr)O[C@@H]2C[C@H]1Br (relative stereo) [Compound 3, Thuwalallene C] | > 15.6 | higher than 15.62 μM | 4.18 ± 0.48 |  |  |  |  |  |
| C#C/C=C\C[C@@H]1O[C@@H]2C[C@@H](Br)[C@H](CC)O[C@@H]2C[C@@H]1Br (relative stereo) [Compound 4, Thuwalenyne A] | > 62.5 |  | > 62.5 | did not exhibit anti-inflammatory activity or cytotoxicity | did not exhibit any activity; also recorded: did not exhibit anti-inflammatory activity |  |  |  |
| C#C/C=C\CC(Br)[C@H]1C[C@H]2O[C@@H](CC)[C@H](Br)C[C@H]2O1 (relative stereo) [Compound 6, Thuwalenyne B] | > 15.6 | higher than 15.62 μM | 37.4 ± 2.51 |  |  |  |  |  |
| C#C/C=C\C/C=C\C[C@H]1O[C@@H](CC)[C@H](Br)C[C@H]1O (relative stereo) [Compound 7, Thuwalenyne C] |  |  |  |  |  | proven to be unstable |  |  |
| CCC1OC2CC3OC3CC(C=C=CBr)OC2CC1Br (centres unmarked) [Compound 1, Thuwalallene A] | > 15.6 | higher than 15.62 μM | 26 ± 3.73 |  |  |  |  |  |
| CCC1OC2CC(C(O)CC(Cl)C=C=CBr)OC2CC1Br (centres unmarked) [Compound 5, Thuwalallene D] | > 15.6 | higher than 15.62 μM | 12.4 ± 1.04 |  |  |  |  |  |
| CCC(Br)C1CC2OC(C=C=CBr)CC=CCC2O1 (centres unmarked) [Compound 8, Thuwalallene E] | > 7.81 | ≥ 7.81 µM | 3.98 ± 0.6 |  |  |  |  |  |
| CC(C)(O)[C@H]1CC[C@](C)([C@@H](O)CC[C@](C)(O)[C@H]2CC[C@H]3O[C@@H]([C@]4(C)CC[C@@H](Br)C(C)(C)O4)CC[C@]3(C)O2)O1 [Compound 10, thyrsiferol] | > 0.1 |  |  | without significant cytotoxicity | IC50 values in the low nM scale |  | above 100 nM |  |
| CC(=O)OC(C)(C)C1CCC(C)(C(O)CCC(C)(O)C2CCC3OC(C4(C)CCC(Br)C(C)(C)O4)CCC3(C)O2)O1 (centres unmarked) [Compound 11, 23-acetylthyrsiferol] |  |  | 0.00263 | without significant cytotoxicity | IC50 values in the low nM scale |  | above 10 nM | > 0.01 |
